One experiment deals with EAMG rats. Description: Grip strength test after single dose of Mestinon and CIC-1 inhibitor alone or in combination. In kind it is in vivo, rat. The procedure: To induce EAMG, 250 μL of emulsion of Complete Freund's Adjuvant, consisting of heat-inactivated Mycobacterium tuberculosis H37Ra in non-metabolizable oils, together with Phosphate-Buffered Saline (PBS) and 80 μg of the extracellular α-domain peptide fragment of the human nicotinic acetylcholine receptor (antigen) was injected subcutaneously in seven-week-old, anaesthetized Lewis rats. The disease-inducing antigen was supplied by the Hellenic Pasteur institute3. The emulsion was deposited at the tail base, left hindleg, and right foreleg. After injection, animals were allowed to recover and returned to their home cage maintained in ventilated racks under controlled temperature (20 to 22° C.) and humidity (˜55%) control, under a 12-h light/12-h dark cycle with food and water provided ad libitum. The animals had pathogen free status and the housing and changing system was designed to assure that the pathogen free status was preserved during the study. The EAMG rats were observed, weighed, and scored for MG symptoms weekly until symptoms of MG developed, whereafter animals were observed daily.
In EAMG animals with severe MG symptoms the effects of CIC-1 inhibitor and Mestinon (pyridostigmine) alone or in combination was assessed. […] The study was blinded to both the experimenter and during subsequent analysis. Animals were subjected to grip strength test before compound administration, as described above and then dosed per oral with either 0.375 mg/kg pyridostigmine bromide (Mestinon) (CAS-no 101-26-8), 20 mg/kg NMD670 or a combination of both pyridostigmine and NMD670. Grip strength was tested 45 minutes post dosing. […] The change in grip strengths was calculated for individual animals relative to the results obtained prior to administration of test article and then averaged.
Grip strength was measured on a BIOSEB BIO-GT3 Grip strength meter (force transducer, S/N 180271). […] Care was taken to ensure that the force recorded reflected the grip strength of the rat and not the force of the pulls conducted by the operator. […]

In the next experiment the target is T1, CIC-1 (Rattus norvegicus, UniProt P35524).
T1 construct: from tissue; host or cells: soleus or diaphragm muscle of healthy and EAMG Lewis rats
T1 sequence (P35524 1-994): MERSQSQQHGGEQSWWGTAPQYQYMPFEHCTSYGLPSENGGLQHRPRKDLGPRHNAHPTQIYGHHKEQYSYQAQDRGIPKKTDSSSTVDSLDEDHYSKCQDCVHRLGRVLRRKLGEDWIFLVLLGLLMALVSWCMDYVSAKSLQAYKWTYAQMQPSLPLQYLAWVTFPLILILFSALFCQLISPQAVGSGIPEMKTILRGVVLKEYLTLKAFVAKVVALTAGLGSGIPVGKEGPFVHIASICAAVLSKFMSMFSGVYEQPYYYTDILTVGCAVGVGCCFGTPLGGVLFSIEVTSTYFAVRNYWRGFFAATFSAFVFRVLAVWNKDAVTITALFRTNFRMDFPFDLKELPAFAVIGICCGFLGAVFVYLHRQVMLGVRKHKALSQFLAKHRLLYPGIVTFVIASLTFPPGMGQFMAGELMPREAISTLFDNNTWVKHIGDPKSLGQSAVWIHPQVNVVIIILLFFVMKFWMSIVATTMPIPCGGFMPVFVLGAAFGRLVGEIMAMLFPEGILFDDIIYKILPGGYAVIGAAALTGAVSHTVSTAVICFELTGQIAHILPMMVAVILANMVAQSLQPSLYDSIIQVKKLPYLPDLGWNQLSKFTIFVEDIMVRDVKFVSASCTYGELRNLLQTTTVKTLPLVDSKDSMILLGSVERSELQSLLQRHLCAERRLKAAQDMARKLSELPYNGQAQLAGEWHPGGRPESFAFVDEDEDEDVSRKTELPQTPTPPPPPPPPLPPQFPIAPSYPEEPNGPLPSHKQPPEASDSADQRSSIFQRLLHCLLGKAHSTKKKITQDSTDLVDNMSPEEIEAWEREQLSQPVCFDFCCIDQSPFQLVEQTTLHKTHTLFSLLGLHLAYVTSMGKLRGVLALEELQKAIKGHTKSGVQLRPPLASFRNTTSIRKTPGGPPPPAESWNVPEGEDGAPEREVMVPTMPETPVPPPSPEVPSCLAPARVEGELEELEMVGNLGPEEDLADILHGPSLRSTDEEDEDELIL
As to the kind of experiment: Resting membrane conductance (Gm) in muscle fibres of isolated nerve-muscle preparations. In kind it is cell-based. The source says: To allow for measurements of electrophysiological properties at the cellular level and for measurements of force, it was necessary to isolate nerve-muscle preparations from the rats. To this end, animals were sacrificed, and muscles were dissected out with 1 to 3 cm of intact nerve. The nerve-muscle preparations were then transferred to the organ baths used for the particular experiments (see below) and perfused with Normal Krebs-Ringer (NKR) solution, consisting of (in mM); 122 NaCl, 25 NaHCO3, 2.8 KCl, 1.2 KH2PO4, 1.2 MgSO4 1.27 CaCl2 and 5 D-glucose. This NKR solution was continuously gassed with a mixture of 95% oxygen and 5% CO2, to maintain a pH of approx. 7.4. In some experiments methyl-sulphate was used to replace Cl^− in the solution. All chemicals used were of analytical grade.

Several values for one entry are separate records, joined by “and”; a condition that tells them apart may be missing. Equal values may be shown once.

On to `C[C@H](Oc1ccc(Br)cc1-c1ccon1)C(=O)O` [NMD670, (2S)-2-[4-bromo-2-(1,2-oxazol-3-yl)phenoxy]propanoic acid], for which, in the experiment with EAMG rats (45 minutes after dosing, 20 mg/kg NMD670, or with 0.375 mg/kg Mestinon), the “Grip strength after administration (significance vs vehicle)” value is on record as “significantly increased”. Also, the “Increase in Pulled Force (%)” value with EAMG rats (per oral, 45 minutes post dosing, 0.375 mg/kg Mestinon, 20 mg/kg NMD670 or both) is 15±5% and 14.5 ± 5.1%. The “Membrane conductance (Gm)” value on CIC-1 (20 μM NMD670, rat soleus muscle from healthy (n=20) and EAMG (n=12) animals, before vs after addition) is “statistically significantly reduced Gm”. Further, the “Membrane conductance (Gm) in bathing solution free of Cl−” value on CIC-1 (increasing concentration of NMD670, Cl−-free solution) was “did not reduced Gm”.

The record behind these values is patent US20260102377A1, “COMPOSITIONS AND METHODS FOR TREATING MYASTHENIA GRAVIS” (priority 2022, published 2026).
